Like-named read-outs stand apart in the source and are kept apart here.

The target in one assay is T1, menin (Homo sapiens, UniProt O00255, T541A).
T1 construct: Menin (a.a. 1-610-6×his tag)
T1 sequence (O00255 with tags, fused parts or gaps T541A): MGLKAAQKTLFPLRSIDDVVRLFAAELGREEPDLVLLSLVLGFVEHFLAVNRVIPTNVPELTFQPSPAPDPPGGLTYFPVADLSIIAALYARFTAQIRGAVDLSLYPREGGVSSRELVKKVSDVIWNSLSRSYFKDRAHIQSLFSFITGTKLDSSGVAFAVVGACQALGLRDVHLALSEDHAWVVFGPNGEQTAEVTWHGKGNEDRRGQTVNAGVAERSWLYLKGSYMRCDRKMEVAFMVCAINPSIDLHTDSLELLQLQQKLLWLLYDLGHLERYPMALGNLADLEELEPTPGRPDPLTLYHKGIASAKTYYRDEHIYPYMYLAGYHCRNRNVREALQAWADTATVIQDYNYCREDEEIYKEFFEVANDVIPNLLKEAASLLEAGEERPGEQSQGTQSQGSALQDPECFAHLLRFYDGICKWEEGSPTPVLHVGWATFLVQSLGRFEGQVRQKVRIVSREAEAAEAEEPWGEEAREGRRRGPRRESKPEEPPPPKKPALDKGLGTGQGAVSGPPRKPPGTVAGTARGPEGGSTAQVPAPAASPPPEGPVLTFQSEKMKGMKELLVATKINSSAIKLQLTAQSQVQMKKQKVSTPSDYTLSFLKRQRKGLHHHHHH
The assay can be described thus: Menin/MLL homogenous time-resolved fluorescence (HTRF) assay. The class given is binding. The following applies: location 2; read-out: (2) location 2 Menin HTRF assay (IC50 (nM)). The method, boiled down: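 Terbium-labeled menin (aa 1-610, His-tagged; […]) preincubated 5 min with compound, then 75 nM FITC-MBM1 peptide for 15 min, ambient, Tris pH 7.5, 0.5% DMSO. HTRF 520/490 ratio; 11-point 3-fold titration; IC50 from % inhibition fit.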
(In TR-FRET formats the signal depends on donor and acceptor labels being close together.)

The test system of the next assay is MV-4-11. The assay can be described thus: Proliferation assay B (spheroid assay) MV-4-11. The class given is cell-based, human. The following applies: MV-4-11 cells, confluence at day 8, absolute IC50, read-out: (3b) Spheroid assay MV-4--11 (IC50(μM)) Assay B. The procedure:
3b) Proliferation Assay B
The anti-proliferative effect of menin/MLL protein/protein interaction inhibitor test compounds was assessed in human leukemia cell lines. The cell lines MV-4-11 and MOLM14 harbor MILL translocations and express the MILL fusion proteins MLL-AF4 and MLL-AF9, respectively, as well as the wildtype protein from the second allele. […] K562 was used as a control cell line containing two MLL wildtype alleles in order to exclude compounds that display general cytotoxic effects.
MV-4-11 and MOLM14 were cultured in RPMI-1640 (Sigma Aldrich) supplemented with 10% fetal bovine serum (HyClone), 2 mM L-glutamine (Sigma Aldrich) and 50 μg/ml gentamycin (Gibco). K562 were propagated in RPMI-1640 (Sigma Aldrich) supplemented with 20% fetal bovine serum (HyClone), 2 mM L-glutamine (Sigma Aldrich) and 50 μg/ml gentamycin (Gibco).
In order to assess the anti-proliferative effects, 1,500 MV-4-11, 300 MOLM14 cells or 750 K562 cells were seeded in 200 μl media per well in 96-well round bottom, ultra-low attachment plates (Costar, catalogue number 7007). Cell seeding numbers were chosen based on growth curves to ensure linear growth throughout the experiment. Test compounds were added at different concentrations and the DMSO content was normalized to 0.3%. Cells were incubated for 8 d at 37° C. and 5% CO2. Spheroid like growth was measured in real-time by live-cell imaging (IncuCyteZOOM, Essenbio, 4× objective) acquiring images at day 8. Confluence (%) as a measure of spheroid size was determined using an integrated analysis tool.
In order to determine the effect of the test compounds over time, the confluence in each well as a measure of spheroid size, was calculated. Confluence […] at the beginning of the experiment (t=0) was used as baseline for the calculation.
Absolute IC50 values were calculated as percent change in confluence as follows:
LC=Low Control: cells treated with 1 μM of the cytotoxic agent staurosporin
HC=High Control: Mean confluence (%) (DMSO treated cells) % Effect=100−(100*(Sample−LC)/(HC−LC))
To determine the IC50 a curve is fitted to the plot of % Effect vs Log 10 compound concentration using a sigmoidal fit with a variable slope and fixing the maximum to 100% and the minimum to 0%.

The test system of the next assay is MOLM14. The assay can be described thus: Proliferation assay B (spheroid assay) MOLM14. It counts as cell-based, human. The following applies: MOLM14 cells, confluence at day 8, absolute IC50, read-out: (3b) Spheroid assay MOLM14 (IC50(μM)) Assay B. In short, it runs like this: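 Leukemia cells grown as spheroids in ultra-low-attachment round-bottom wells with compound at 0.3% DMSO for 8 d at 37 °C. Confluence imaged at day 8 as spheroid size, normalized between DMSO and 1 μM staurosporine controls; absolute IC50 from sigmoidal fit with bounds fixed at 0 and 100%.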

Turning to `CN1CCC(c2cc(NC3CC4(CCN(c5ncnc6sc(CC(F)(F)F)cc56)C4)C3)ccc2C#N)CC1` (racemic) [Compound 78], the IC50 at menin amounted to 2.9 nM; in the assay on MV-4-11 (Homo sapiens, MV4-11, 192 h), 0.33 µM; in the assay with MOLM14 (Homo sapiens, MOLM-14, 192 h), 0.48 µM.
For `CC(C)(NC1CCC2(C1)CN(c1ncnc3sc(CC(F)(F)F)cc13)C2)c1ccccc1` (racemic) [Compound 276] the same measures were 97.3 nM, 2.43 µM and more than 3.75 µM.
Taken in the same sequence, the figures for `CNC(=O)c1ccc(NC2CC3(CCN(c4ncnc5sc(CC(F)(F)F)cc45)C3)C2)c(F)c1` (single isomer, unassigned) [Compound 67] were 1 nM, 0.14 µM and 0.62 µM.
For `CNC(=O)c1ccc(NC2CC3(CCN(c4ncnc5sc(CC(F)(F)F)cc45)C3)C2)nc1` (single isomer, unassigned) [Compound 72] the same measures were 2.8 nM, 0.23 µM and 0.5 µM.
`CN(C)CCNC(=O)c1ccc(NC2CC3(CCN(c4ncnc5sc(CC(F)(F)F)cc45)C3)C2)cc1` (single isomer, unassigned) [Compound 75]: the concentration for half-maximal inhibition (IC50) at menin turned out to be 1.3 nM; in the assay on MV-4-11 (Homo sapiens, MV4-11, 192 h) it was 0.05 µM; with MOLM14, 0.46 µM.
Consider `CN1CCC(c2cc(NC3CC4(CCN(c5ncnc6sc(CC(F)(F)F)cc56)C4)C3)ccc2C#N)CC1` (single isomer, unassigned) [Compound 79], for which the IC50 came to 14.2 nM at menin; 0.17 µM in the assay on MV-4-11 (Homo sapiens, MV4-11, 192 h); 0.59 µM with MOLM14 (Homo sapiens, MOLM-14, 192 h).
Taken in the same sequence, the figures for `O=C(NCCO)c1ccc(NC2CC3(CCN(c4ncnc5sc(CC(F)(F)F)cc45)C3)C2)cc1` (single isomer, unassigned) [Compound 84] were 2.3 nM, 0.06 µM and 0.56 µM.
Taken in the same sequence, the figures for `FC(F)(F)Cc1cc2c(N3CCC4(CC(Nc5cccnc5)C4)C3)ncnc2s1` (single isomer, unassigned) [Compound 153] were 34.7 nM, 2.47 µM and more than 3.75 µM.
For `CNC(=O)c1ccc(NC2CC3(CCN(c4ncnc5sc(CC(F)(F)F)cc45)C3)C2)c(F)c1F` (single isomer, unassigned) [Compound 226] the same measures were 7.8 nM, 0.43 µM and 2.83 µM.
Take `CN1CC=C(c2cc(NC3CC4(CCN(c5ncnc6sc(CC(F)(F)F)cc56)C4)C3)ccc2C(C)(C#N)C#N)CC1` (single isomer, unassigned) [Compound 247]: the IC50 at menin was 30.2 nM; with MV-4-11, 0.97 µM; in the assay with MOLM14, 0.71 µM.
As for `CN(C)CCNC(=O)c1ccc(NC2CC3(CCN(c4ncnc5sc(CC(F)(F)F)cc45)C3)C2)nc1` (single isomer, unassigned) [Compound 254], the IC50 at menin was 2.8 nM; with MV-4-11 (Homo sapiens, MV4-11, 192 h), 0.17 µM; in the assay on MOLM14, 1.5 µM.
`Cc1nc(N2CCC3(CC(NCc4ccccc4)C3)C2)c2cc(CC(F)(F)F)sc2n1` (single isomer, unassigned) [Compound 262]: the IC50 at menin was 15.1 nM; with MV-4-11 (Homo sapiens, MV4-11, 192 h) it was 0.69 µM; in the assay with MOLM14 (Homo sapiens, MOLM-14, 192 h) it was 0.81 µM.
For `COc1nc(N2CCC3(CC(Nc4ccccc4)C3)C2)c2cc(CC(F)(F)F)sc2n1` (single isomer, unassigned) [Compound 267] the same measures were 98.2 nM, more than 3.75 µM and more than 3.75 µM.
For `O=c1[nH]c2cc(N[C@@H]3CCC4(C3)CN(c3ncnc5sc(CC(F)(F)F)cc35)C4)ccc2o1` (single isomer, unassigned) [Compound 286] the same measures were 23.7 nM, 2.48 µM and more than 3.75 µM.
For `O=c1[nH]c2cc(N[C@H]3CCC4(C3)CN(c3ncnc5sc(CC(F)(F)F)cc35)C4)ccc2o1` (single isomer, unassigned) [Compound 287] the same measures were 22.8 nM, 3.37 µM and more than 3.75 µM.
With `O=C(c1ccc(NC2CC3(CCN(c4ncnc5sc(CC(F)(F)F)cc45)C3)C2)cc1)N1CCOCC1` (single isomer, unassigned) [Compound 334], the IC50 at menin was 256 nM; with MV-4-11, more than 3.75 µM; with MOLM14 it was more than 3.75 µM.
On to `O=C(c1ccc(NC2CC3(CCN(c4ncnc5sc(CC(F)(F)F)cc45)C3)C2)cc1)N1CCOCC1` (single isomer, unassigned) [Compound 335], for which the IC50 stood at 5.2 nM on menin, 0.46 µM in the assay with MV-4-11 and 1.55 µM with MOLM14.
Turning to `CS(=O)(=O)NC(=O)c1ccc(NC2CC3(CCN(c4ncnc5sc(CC(F)(F)F)cc45)C3)C2)cc1` (single isomer, unassigned) [Compound 361], the IC50 was 61.7 nM at menin, more than 3.75 µM in the assay with MV-4-11 and more than 3.75 µM with MOLM14.
For the compound `CS(=O)(=O)NC(=O)c1ccc(NC2CC3(CCN(c4ncnc5sc(CC(F)(F)F)cc45)C3)C2)cc1` (single isomer, unassigned) [Compound 362], the IC50 was 836 nM at menin; more than 3.75 µM with MV-4-11 (Homo sapiens, MV4-11, 192 h); more than 3.75 µM in the assay with MOLM14 (Homo sapiens, MOLM-14, 192 h).
For `COC[C@@H]1CN(C(=O)c2ccc(NC3CC4(CCN(c5ncnc6sc(CC(F)(F)F)cc56)C4)C3)cc2)CCO1` (single isomer, unassigned) [Compound 410], the IC50 on menin is 68.7 nM; in the assay with MV-4-11 (Homo sapiens, MV4-11, 192 h), more than 3.75 µM; in the assay with MOLM14 (Homo sapiens, MOLM-14, 192 h), more than 3.75 µM.
As for `O=C(c1ccc(NC2CC3(CCN(c4ncnc5sc(CC(F)(F)F)cc45)C3)C2)cc1)N1CC2(COC2)C1` (single isomer, unassigned) [Compound 413], the IC50 is 2290 nM at menin; more than 3.75 µM in the assay on MV-4-11 (Homo sapiens, MV4-11, 192 h); more than 3.75 µM in the assay with MOLM14 (Homo sapiens, MOLM-14, 192 h).
As for `Cn1c(=O)[nH]c2ccc(CN[C@@H]3CCC4(C3)CN(c3ncnc5sc(CC(F)(F)F)cc35)C4)cc21` (stereo in doubt) [Compound 110], the IC50 on menin worked out at 5.5 nM; in the assay with MV-4-11 (Homo sapiens, MV4-11, 192 h), 0.62 µM; in the assay with MOLM14 (Homo sapiens, MOLM-14, 192 h), 1.91 µM.
For `Cn1c(=O)[nH]c2ccc(CN[C@H]3CCC4(C3)CN(c3ncnc5sc(CC(F)(F)F)cc35)C4)cc21` (stereo in doubt) [Compound 111] the same measures were 65 nM, 0.62 µM and 3.06 µM.
With `COc1nc(N2CC3(CC[C@H](NCc4cccc(-c5cc[nH]n5)c4)C3)C2)c2cc(CC(F)(F)F)sc2n1` (stereo in doubt) [Compound 116], the IC50 on menin came to 30.6 nM; with MV-4-11 (Homo sapiens, MV4-11, 192 h), 2.06 µM; in the assay on MOLM14 (Homo sapiens, MOLM-14, 192 h) it was 2.32 µM.
Taken in the same sequence, the figures for `CNc1nc(N2CC3(CC[C@@H](NCc4cccc(-c5cc[nH]n5)c4)C3)C2)c2cc(CC(F)(F)F)sc2n1` (stereo in doubt) [Compound 121] were 32.7 nM, 0.98 µM and 1.6 µM.

The IC50 is the midpoint of a concentration-inhibition curve.

The values are drawn from patent US11396517B1, “Exo-aza spiro inhibitors of menin-MLL interaction” (Janssen Pharmaceutica NV, priority 2017, dated 2022).
